Results reported in US9416383B2, “Method for enhancing catalytic activity of a lipase” (University of North Carolina at Chapel Hill, priority 2007, dated 2016).
Entries after “also recorded” stand apart in the source; their conditions may differ.

How the values were obtained:
human PLCβ3 (hPLCβ3) = biological target: T1, human PLCβ3 (hPLCβ3) (Homo sapiens, UniProt Q01970); test: PLCβ3 activity by cell free assay ([3H]-inositol phosphate formation from PIP2 in dodecylmaltoside mixed micelles); type: biochemical; details: for effect on U73122-induced activation of hPLCβ3: FIGS. 3 and 6B; for effect on activity of hPLCβ3 in DDM mixed micelles: FIG. 2
T1 construct: confirmed alkylation at up to eight cysteine residues on the full length protein; gift: laboratory of Dr. T. K. Harden, University of North Carolina
T1 sequence (Q01970 1-1234): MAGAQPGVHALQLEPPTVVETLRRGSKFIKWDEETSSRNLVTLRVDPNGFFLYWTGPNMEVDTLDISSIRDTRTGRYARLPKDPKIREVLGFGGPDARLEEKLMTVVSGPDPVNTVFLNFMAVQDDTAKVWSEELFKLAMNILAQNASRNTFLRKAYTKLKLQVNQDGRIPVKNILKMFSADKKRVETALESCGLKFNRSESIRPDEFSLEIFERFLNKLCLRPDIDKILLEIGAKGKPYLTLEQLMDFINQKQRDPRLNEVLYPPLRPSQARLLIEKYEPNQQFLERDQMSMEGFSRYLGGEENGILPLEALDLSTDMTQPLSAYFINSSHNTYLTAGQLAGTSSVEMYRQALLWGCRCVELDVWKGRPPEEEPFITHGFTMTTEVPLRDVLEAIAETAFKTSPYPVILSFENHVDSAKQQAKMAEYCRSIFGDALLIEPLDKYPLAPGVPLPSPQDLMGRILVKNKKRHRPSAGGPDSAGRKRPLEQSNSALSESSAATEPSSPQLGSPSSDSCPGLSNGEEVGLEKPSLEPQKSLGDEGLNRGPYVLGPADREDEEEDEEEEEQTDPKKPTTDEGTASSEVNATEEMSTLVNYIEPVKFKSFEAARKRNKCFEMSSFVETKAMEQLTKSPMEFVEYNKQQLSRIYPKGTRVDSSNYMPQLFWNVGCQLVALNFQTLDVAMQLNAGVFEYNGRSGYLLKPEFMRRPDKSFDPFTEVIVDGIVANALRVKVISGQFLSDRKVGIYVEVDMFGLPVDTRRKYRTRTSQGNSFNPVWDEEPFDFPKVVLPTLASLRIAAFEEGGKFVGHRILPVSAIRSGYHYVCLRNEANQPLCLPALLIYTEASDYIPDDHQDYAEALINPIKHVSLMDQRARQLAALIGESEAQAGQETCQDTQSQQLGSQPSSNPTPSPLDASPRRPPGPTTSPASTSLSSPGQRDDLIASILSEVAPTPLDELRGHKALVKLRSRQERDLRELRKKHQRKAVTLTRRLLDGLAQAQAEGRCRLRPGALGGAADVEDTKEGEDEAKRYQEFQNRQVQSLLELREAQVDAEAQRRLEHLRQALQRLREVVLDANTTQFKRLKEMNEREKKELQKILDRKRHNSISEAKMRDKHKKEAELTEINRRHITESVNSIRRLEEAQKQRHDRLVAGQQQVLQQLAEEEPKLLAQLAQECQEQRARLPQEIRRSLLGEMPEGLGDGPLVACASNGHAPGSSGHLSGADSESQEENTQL
Description: Purified human PLCβ3 protein was generously provided by the laboratory of Dr. T. K. Harden (Department of Pharmacology, University of North Carolina, Chapel Hill, N.C., United States of America). […] Briefly, hot and cold phosphatidylinositol-4,5-bisphosphate (PIP2; 5 nmol), as substrate, was reconstituted in a 1 mM dodecylmaltoside solution and mixed with assay buffer containing 40 mM Hepes (pH 7.4), 480 mM KCl, 40 mM NaCl, 8 mM EGTA, 4 mM […], and 7.6 mM CaCl2. Compounds at desired concentrations and purified PLCβ3 in 1% fatty acid-free BSA and 10 mM Hepes (pH 7.0), were subsequently added to the mixture. To initiate assays, samples were moved to a 37° C. water bath and incubated for 2-10 minutes such that less than fifteen percent total substrate was hydrolyzed. At designated times, reactions were stopped by addition of 750 μl CHCl3:MeOH:HCl (40:80:1), 100 μl water, 250 μl CHCl3, and 250 μl 0.1M HCl. Samples were vortexed and centrifuged at 3000 rpm for 10 minutes at 4° C. The amount of formed [^3H]-inositol phosphates was measured by liquid scintillation counting of 500 μl of the upper phase in a Packard Tri Carb 4000 Series […].
Data are expressed as mean±SD of three experiments performed in triplicate unless otherwise indicated. Statistical significance was evaluated using unpaired Students t tests. Data were modeled using Win-non Lin (Pharsight, Mountain View, Calif., United States of America) non-linear regression analysis for determination of EC50 (PLCβ3) and IC50 values.

PLC in Caco-2 cells = details: ATP-stimulated, concentration dependent; cited from earlier work
PLC in MDCK cells = details: ATP-stimulated, concentration dependent; cited from earlier work
MDCK cell monolayers = details: concentration-dependent; cited from earlier work
Caco-2 cell monolayers = details: concentration-dependent; cited from earlier work
hPLCβ3 = biological target: T2, hPLCβ3 (Homo sapiens, UniProt Q01970); test: Mass spectrometry of intact hPLCβ3 and LC/MS/MS peptide sequencing (alkylation); details: FIG. 6A
T2 construct: confirmed alkylation at up to eight cysteine residues on the full length protein; gift: laboratory of Dr. T. K. Harden, University of North Carolina
T2 sequence (Q01970 1-1234): T1 sequence (Q01970 1-1234)
Description: The mass-to-charge data were transformed to the mass domain using BioConfirm software from Agilent. For peptide sequencing, solution phase and SDS gel bands of unmodified and modified PLCβ3 was incubated with trypsin overnight at 37° C. […] The tryptic peptides were subsequently analyzed by nano-LC/MS/MS using a Dionex UltiMate nano LC (Sunnyvale, Calif., United States of America) coupled to Sciex (Toronto, Ontario, Canada) Q-Star Pulsar i mass spectrometer. The results were processed using MASCOT (Matrix Sciences, Boston, Mass., United States of America) protein database that had the mass of U73122 modification created as a variable modification.

Row | Compound | effect on U73122-induced activation of hPLCβ3 (human PLCβ3 (hPLCβ3); DDM mixed micelles) | effect on activity of hPLCβ3 in DDM mixed micelles (human PLCβ3 (hPLCβ3); DDM mixed micelles) | inhibition of PLC activity in Caco-2 cells (PLC in Caco-2 cells) | inhibition of PLC activity in MDCK cells (PLC in MDCK cells) | further results
1 | N[C@@H](CS)C(=O)O [cysteine] | inhibit |  |  |  | 
2 | COc1ccc2c(c1)CC[C@@H]1[C@@H]2CC[C@]2(C)[C@@H](NCCCCCCN3C(=O)CCC3=O)CC[C@@H]12 [U73343] |  | do not | does not | does not | 
3 | N[C@@H](CCC(=O)N[C@@H](CS)C(=O)NCC(=O)O)C(=O)O [glutathione] | inhibits |  |  |  | IC50 (human PLCβ3 (hPLCβ3); DDM mixed micelles, mean±SD, read-out: IC50 for inhibition of U73122-induced activation of hPLCβ3): 38 ± 16 µM
4 | COc1ccc2c(c1)CC[C@@H]1[C@@H]2CC[C@]2(C)[C@@H](NCCCCCCN3C(=O)C=CC3=O)CC[C@@H]12 [U73122] |  | increases the activity | inhibits | inhibits | effect on tight junction permeability, MDCK monolayers (MDCK cell monolayers): enhances; EC50 (human PLCβ3 (hPLCβ3)): 14 ± 5 µM; time dependence of hPLCβ3 activation (human PLCβ3 (hPLCβ3); FIG. 4): time dependent; effect on tight junction permeability, Caco-2 monolayers (Caco-2 cell monolayers): enhances
5 | CCN1C(=O)C=CC1=O [NEM, N-ethylmaleimide] | inhibits | do not; also recorded: inability to activate |  |  | alkylation of hPLCβ3 (hPLCβ3): alkylates hPLCβ3 at multiple amino acid residues
